# Source: patent US9802891B2, “Crystal forms of azetidinone compounds and preparing methods thereof” (Zhejiang Hisun Pharmaceutical Co., Ltd., priority 2012, dated 2017)
# Key:
# [1] = Accelerated stability test; format: physicochemical; settings: 40° C.±2° C., relative humidity 75%±5%; for Melting point / Content of C25H21F2NO3, based on anhydride / Relevant substances: Single maximum unknown foreign matter / Relevant substances: Total foreign matter / Moisture / Relevant substances: Diastereomer: commercial package; for Melting point: limit 149-153° C.; for Content of C25H21F2NO3, based on anhydride: shall be no less than 97.0%; for Relevant substances: Single maximum unknown foreign matter: shall not exceed 0.3%; for Relevant substances: Total foreign matter: shall not exceed 1.5%; for Moisture: shall not exceed 2.0%; for Relevant substances: Diastereomer: shall not exceed 1.0%
# Protocol: In accordance with the stability test guiding principles (Chinese Pharmacopoeia 2010 Edition 2—Annex XIX C), prepare the sample of the crystal form I of the compound of formula A described in embodiment 6 in a commercial package, place the samples in a thermotank at the temperature of 40° C.±2° C. with the relative humidity of 75%±5%, with the duration of 6 months, take each sample once at the ends of the first month, the second month, the third month and the sixth month respectively to detect the key stability inspection items and compare with the results of the sample at the zero day, wherein see Table 4 for the comparisons.
# Long term stability test = format: physicochemical; settings: 25° C.±2° C., relative humidity 60%±10%; for Content of C25H21F2NO3, based on anhydride: shall be no less than 97.0%; for Relevant substances: Single maximum unknown foreign matter: shall not exceed 0.3%; for Relevant substances: Total foreign matter: shall not exceed 1.5%; for Moisture: shall not exceed 2.0%
# Protocol: In accordance with the stability test guiding principles (Chinese Pharmacopoeia 2010 Edition 2—Annex XIX C), prepare the samples of the crystal form I of the compound of formula A described in embodiment 6 in a commercial package, place the samples in a thermotank at the temperature of 25° C.±2° C. with the relative humidity of 60%±10%, take each sample from the samples once at the ends of the third month, the sixth month and the ninth month respectively to detect the key stability inspection items of each sample and compare with the result of the sample at the zero day, wherein see Table 3 for the comparisons.
# [2] = commercial package, month 9, shall not exceed 0.5%
smiles,measurement,setting,value
"O=C1[C@H](C/C=C(\CO)c2ccc(F)cc2)[C@@H](c2ccc(O)cc2)N1c1ccc(F)cc1 [crystal form I, (3R,4S)-4-(4-hydroxyphenyl)-3-[3-(4-fluorophenyl)-4-hydroxybut-2(Z)-enyl]-1-(4-fluorophenyl)-2-azetidinone]",Melting point,[1]; month 0,149.8-152.1 °C
same,"Content of C25H21F2NO3, based on anhydride",[1]; month 0,98.71%
same,Relevant substances: Single maximum unknown foreign matter,[1]; month 0,0.097%
same,Relevant substances: Total foreign matter,[1]; month 0,0.342%
same,Moisture,[1]; month 0,0.20%
same,Melting point,[1]; month 1,149.3-151.5 °C
same,"Content of C25H21F2NO3, based on anhydride",[1]; month 1,99.11%
same,Relevant substances: Single maximum unknown foreign matter,[1]; month 1,0.1004%
same,Relevant substances: Diastereomer,[1]; month 1,0.0128%
same,Relevant substances: Total foreign matter,[1]; month 1,0.3757%
same,Moisture,[1]; month 1,0.30%
same,Melting point,[1]; month 2,149.7-152.1 °C
same,"Content of C25H21F2NO3, based on anhydride",[1]; month 2,98.82%
same,Relevant substances: Single maximum unknown foreign matter,[1]; month 2,0.0856%
same,Relevant substances: Diastereomer,[1]; month 2,Not detected
same,Relevant substances: Total foreign matter,[1]; month 2,0.3650%
same,Moisture,[1]; month 2,0.28%
same,Melting point,[1]; month 3,149.7-152.1 °C
same,"Content of C25H21F2NO3, based on anhydride",[1]; month 3,98.78%
same,Relevant substances: Single maximum unknown foreign matter,[1]; month 3,0.0983%
same,Relevant substances: Diastereomer,[1]; month 3,Not detected
same,Relevant substances: Total foreign matter,[1]; month 3,0.3717%
same,Moisture,[1]; month 3,0.37%
same,Melting point,[1]; month 6,149.5-151.9 °C
same,"Content of C25H21F2NO3, based on anhydride",[1]; month 6,97.97%
same,Relevant substances: Single maximum unknown foreign matter,[1]; month 6,0.2017%
same,Relevant substances: Diastereomer,[1]; month 6,Not detected
same,Relevant substances: Total foreign matter,[1]; month 6,1.0828%
same,Moisture,[1]; month 6,0.44%
same,"Accelerated stability, conclusion on inspection indexes",[1]; 6 months,"the relevant substances are grown significantly in the sixth month and the content is reduced at a certain level; however, both of the two are within the acceptable range"
same,"Content of C25H21F2NO3, based on anhydride","Long term stability test; commercial package, month 0",98.74%
same,Relevant substances: Single maximum unknown foreign matter,"Long term stability test; commercial package, month 0",0.097%
same,Relevant substances: Total foreign matter,"Long term stability test; commercial package, month 0",0.342%
same,Moisture,"Long term stability test; commercial package, month 0",0.23%
same,"Content of C25H21F2NO3, based on anhydride","Long term stability test; commercial package, month 3",98.99%
same,Relevant substances: Single maximum unknown foreign matter,"Long term stability test; commercial package, month 3",0.1013%
same,Relevant substances: Total foreign matter,"Long term stability test; commercial package, month 3",0.3488%
same,Moisture,"Long term stability test; commercial package, month 3",0.41%
same,"Content of C25H21F2NO3, based on anhydride","Long term stability test; commercial package, month 6",98.83%
same,Relevant substances: Single maximum unknown foreign matter,"Long term stability test; commercial package, month 6",0.0956%
same,Relevant substances: Total foreign matter,"Long term stability test; commercial package, month 6",0.3551%
same,Moisture,"Long term stability test; commercial package, month 6",0.56%
same,"Content of C25H21F2NO3, based on anhydride","Long term stability test; commercial package, month 9",98.91%
same,Relevant substances: Single maximum unknown foreign matter,"Long term stability test; commercial package, month 9",0.0940%
same,Isomer: E-isomer,Long term stability test; [2],0.0161%
same,Isomer: Enantiomer,Long term stability test; [2],0.0587%
same,Relevant substances: Total foreign matter,"Long term stability test; commercial package, month 9",0.3581%
same,Moisture,"Long term stability test; commercial package, month 9",0.32%
same,"Long term stability, conclusion on inspection indexes",Long term stability test; nine month,various inspection indexes of the samples do not change apparently and all meet the specifications
